According to US10005767B2, “Compositions and methods for inhibition of the JAK pathway” (Rigel Pharmaceuticals, Inc., priority 2009, dated 2018):
Structures can show the parent of a compound that is named as a salt.

tested on: human primary T-cells, IL-2 stimulated proliferation (JAK-1 and JAK-3 dependent; reported as JAK3 activity); experiment: Human primary T-cell proliferation stimulated by IL-2 (Example 3); assay type: cell-based; settings: Homo sapiens, T-cell, tested under conditions described in Example 3 (IL-2 stimulated human primary T-cell proliferation); read-out: ability to inhibit JAK3 activity, IC50 range (Table V)
Outline: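 Peripheral-blood human T-cells pre-activated via TCR/CD28, IL-2-starved overnight, then cultured 72 h at 37 °C with compound in Yssel's medium containing IL-2 (80 U/mL in cell suspension). Proliferation read as viable-cell ATP by CellTiter-Glo luminescence; reduction versus control taken as JAK pathway inhibition.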

SMILES	IC50 [nM]
Cc1cnc(Nc2ccc(N3CCCC3)nc2)nc1Nc1ccc2oc(=O)[nH]c2c1 [II-71, 5-(5-methyl-2-(6-(pyrrolidin-1-yl)pyridin-3-ylamino)pyrimidin-4-ylamino)benzo[d]oxazol-2(3H)-one]	< 500
Cc1cnc(Nc2ccc(NS(C)(=O)=O)nc2)nc1Nc1ccc2oc(=O)[nH]c2c1 [II-78, N-(5-(5-methyl-4-(2-oxo-2,3-dihydrobenzo[d]oxazol-5-ylamino)pyrimidin-2-ylamino)pyridin-2-yl)methanesulfonamide]	< 500
Cc1cnc(Nc2ccc(F)c(S(C)(=O)=O)c2)nc1Nc1cc(F)c2oc(=O)[nH]c2c1 [Compound I-250, 7-fluoro-5-(2-(4-fluoro-3-(methylsulfonyl)phenylamino)-5-methylpyrimidin-4-ylamino)benzo[d]oxazol-2(3H)-one]	< 500
COc1cc(Nc2ncc(C)c(Nc3ccc4oc(=O)[nH]c4c3)n2)cc(Cl)c1OC [Compound I-458, 5-(2-(3-chloro-4,5-dimethoxyphenylamino)-5-methylpyrimidin-4-ylamino)benzo[d]oxazol-2(3H)-one]	< 500
CC(=O)NC1CCN(c2ccc(Nc3ncc(C)c(Nc4ccc5oc(=O)[nH]c5c4)n3)cn2)C1 (centres unmarked) [II-81, N-(1-(5-(5-methyl-4-(2-oxo-2,3-dihydrobenzo[d]oxazol-5-ylamino)pyrimidin-2-ylamino)pyridin-2-yl)pyrrolidin-3-yl)acetamide]	< 500
Cc1cnc(Nc2cnc(N3CC4CC3CN4C(=O)OC(C)(C)C)c(F)c2)nc1Nc1ccc2oc(=O)[nH]c2c1 (centres unmarked) [II-49, 5-{3-Fluoro-5-[5-methyl-4-(2-oxo-2,3-dihydro-benzooxazol-5-ylamino)-pyrimidin-2-ylamino]-pyridin-2-yl}-2,5-diaza-bicyclo[2.2.1]heptane-2-carboxylic acid tert-butyl ester]	< 500
COc1cc(Nc2ncc(C)c(Nc3cc(F)c4oc(=O)[nH]c4c3)n2)cc(C)c1F [Compound I-492, 7-fluoro-5-(2-(4-fluoro-3-methoxy-5-methylphenylamino)-5-methylpyrimidin-4-ylamino)benzo[d]oxazol-2(3H)-one]	< 500
Cc1cnc(Nc2ccc3c(c2)NS(=O)(=O)CO3)nc1Nc1ccc2oc(=O)[nH]c2c1 [IV-16, 5-[2-(2,2-Dioxo-1H-benzo[e][1,3,4]oxathiazin-7-ylamino)-5-methyl-pyrimidin-4-ylamino]-3H-benzooxazol-2-one]	< 500
Cc1cnc(Nc2ccc(-c3ccc(N4CCOCC4)nc3)cc2)nc1Nc1ccc2oc(=O)[nH]c2c1 [Compound I-512, 5-(5-methyl-2-(4-(6-morpholinopyridin-3-yl)phenylamino)pyrimidin-4-ylamino)benzo[d]oxazol-2(3H)-one trifluoroacetate salt]	< 500
COc1cncc(Nc2ncc(C)c(Nc3ccc4oc(=O)[nH]c4c3)n2)c1 [II-152, N2-(5-methoxypyridin-3-yl)-5-methyl-N4-(2-oxo-2,3-dihydro-1,3-benzoxazol-5-yl)-2,4-pyrimidinediamine]	> 10000
Cc1cnc(Nc2cc(F)ccc2F)nc1Nc1ccc2oc(=O)[nH]c2c1 [Compound I-466, 5-[2-(2,5-Difluoro-phenylamino)-5-methyl-pyrimidin-4-ylamino]-3H-benzooxazol-2-one]	< 500
Cc1cnc(Nc2ccc3c(c2)CN(CC(C)C)C3)nc1Nc1ccc2oc(=O)[nH]c2c1 [III-8, N4-(benzo[d]oxazol-2(3H)-on-5-yl)-N2-(2-isobutylisoindolin-5-yl)-5-methylpyrimidine-2,4-diamine]	< 500
Cc1cnc(Nc2ccc(N3CC[C@H](N(C)C)C3)nc2)nc1Nc1ccc2oc(=O)[nH]c2c1 [II-90, (S)-5-(2-(6-(3-(dimethylamino)pyrrolidin-1-yl)pyridin-3-ylamino)-5-methylpyrimidin-4-ylamino)benzo[d]oxazol-2(3H)-one]	< 500
Cc1cnc(Nc2cc(F)c(F)cc2F)nc1Nc1ccc2oc(=O)[nH]c2c1 [Compound I-481, 5-[5-Methyl-2-(2,4,5-trifluoro-phenylamino)-pyrimidin-4-ylamino]-3H-benzooxazol-2-one]	< 500
Cc1cnc(Nc2cnc(C3CC4CCC(C3)N4C(=O)OC(C)(C)C)c(C)c2)nc1Nc1ccc2oc(=O)[nH]c2c1 (centres unmarked) [II-65, tert-butyl 3-(3-methyl-5-(5-methyl-4-(2-oxo-2,3-dihydrobenzo[d]oxazol-5-ylamino)pyrimidin-2-ylamino)pyridin-2-yl)-8-azabicyclo[3.2.1]octane-8-carboxylate]	< 500
COc1ncc(Nc2ncc(C)c(Nc3ccc4oc(=O)[nH]c4c3)n2)cc1C(F)(F)F [II-147, N2-(2-methoxy-3-trifluoromethylpyridin-5-yl)-5-methyl-N4-(2-oxo-2,3-dihydro-1,3-benzoxazol-5-yl)-2,4-pyrimidinediamine]	< 500
Cc1cc(Nc2ncc(F)c(Nc3ccc4oc(=O)[nH]c4c3)n2)cnc1N1CCN(C)CC1 [II-30, N4-(benzoxazolin-2-on-5-yl)-N2-[3-methyl-2-(4-methylpiperazin-1-yl)pyridin-5-yl]-5-fluoropyrimidine-2,4-diamine]	< 500
Cc1cnc(Nc2ccc(N3CCC(F)(F)CC3)nc2)nc1Nc1ccc2oc(=O)[nH]c2c1 [II-59, 5-(2-(6-(4,4-difluoropiperidin-1-yl)pyridin-3-ylamino)-5-methylpyrimidin-4-ylamino)benzo[d]oxazol-2(3H)-one]	< 500
Cc1cnc(Nc2cc(C(C)NC(C)C)cc(C(F)(F)F)c2)nc1Nc1ccc2oc(=O)[nH]c2c1 (centres unmarked) [Compound I-473, 5-(2-(3-(1-(isopropylamino)ethyl)-5-(trifluoromethyl)phenylamino)-5-methylpyrimidin-4-ylamino)benzo[d]oxazol-2(3H)-one]	< 500

same assay, conditions: tested under conditions described in Example 3 (IL-2 stimulated human primary T-cell proliferation); read-out: ability to inhibit JAK3 activity, IC50 range (Table V)

SMILES	IC50 [nM]
CCNC(=O)Nc1ccc(Nc2ncc(C)c(Nc3ccc4oc(=O)[nH]c4c3)n2)cc1 [Compound I-318, N2-[4-(ethylaminocarbonylamino)]phenyl-5-methyl-N4-(2-oxo-2,3-dihydro-1,3-benzoxazol-5-yl)-2,4-pyrimidinediamine]	< 500
Cc1cnc(Nc2cc(OCC(C)C)cc(C(F)(F)F)c2)nc1Nc1ccc2oc(=O)[nH]c2c1 [Compound I-224, -(2-(3-isobutoxy-5-(trifluoromethyl)phenylamino)-5-methylpyrimidin-4-ylamino)benzo[d]oxazol-2(3H)-one]	500 to 5000
Cc1cc(Nc2ncc(C)c(Nc3ccc4oc(=O)[nH]c4c3)n2)ccc1N1CCN2CCC1CC2 [Compound I-120, N4-(benzo[d]oxazol-2(3H)-on-5-yl)-N2-((4-(1,4-diazabicyclo[3.2.2]nonan-4-yl)-3-methyl)phenyl)-5-methylpyrimidine-2,4-diamine]	< 500
Cn1c(=O)n(C)c2cc(Nc3nc(Nc4ccc(NS(C)(=O)=O)cc4)ncc3F)ccc21 [Compound I-43, N4-(1,3-dimethylbenzimidazolin-2-on-5-yl)-N2-((4-methylsulfonylamino)phenyl)-5-fluoropyrimidine-2,4-diamine]	500 to 5000
Cc1cnc(Nc2ccc(-c3ccncc3)c(C(F)(F)F)c2)nc1Nc1ccc2oc(=O)[nH]c2c1 [Compound I-330, 5-methyl-N4-(2-oxo-2,3-dihydro-1,3-benzoxazol-5-yl)-N2-[4-(pyridin-4-yl)-3-trifluoromethyl]phenyl-2,4-pyrimidinediamine]	5000 to 10000
Cc1cnc(Nc2cc(F)c(N3CCN(C)CC3)c(F)c2)nc1Nc1ccc2oc(=O)[nH]c2c1 [Compound I-282, N2-[3,5-difluoro-4-(4-methylpiperazino)]phenyl-5-methyl-N4-(2-oxo-2,3-dihydro-1,3-benzoxazol-5-yl)-2,4-pyrimidinediamine]	< 500
Cc1cnc(Nc2cc(C)c(F)c(C)c2)nc1Nc1ccc2oc(=O)n(COP(=O)(O)O)c2c1 [Compound I-451, N2-(3,5-dimethyl-4-fluoro)phenyl-5-methyl-N4-[3-(phosphonooxy)methyl-2-oxo-2,3-dihydro-1,3-benzoxazol-5-yl]-2,4-pyrimidinediamine bis-sodium salt]	500 to 5000
Cc1cnc(Nc2ccc(OC(C)(C)C(N)=O)cc2)nc1Nc1ccc2oc(=O)[nH]c2c1 [Compound I-324, N2-[4-(1-aminocarbonyl-1-methyl)ethoxy]phenyl-5-methyl-N4-(2-oxo-2,3-dihydro-1,3-benzoxazol-5-yl)-2,4-pyrimidinediamine]	< 500
Cc1cnc(Nc2cccc(S(=O)(=O)C(F)(F)F)c2)nc1Nc1ccc2oc(=O)[nH]c2c1 [Compound I-118, N4-(benzo[d]oxazol-2(3H)-on-5-yl)-N2-(3-trifluoromethylsulfonyl)phenyl-5-methylpyrimidine-2,4-diamine]	< 500
Cc1cnc(Nc2cccc(NS(C)(=O)=O)c2)nc1Nc1ccc2c(c1)n(C)c(=O)n2C [Compound I-37, N4-(1,3-dimethylbenzimidazolin-2-on-5-yl)-N2-((3-methylsulfonylamino)phenyl)-5-methylpyrimidine-2,4-diamine]	< 500
COc1cc(Nc2ncc(C)c(Nc3ccc4oc(=O)n(COP(=O)(O)O)c4c3)n2)cc(C)c1F [Compound I-538, Sodium (5-(2-(4-fluoro-3-methoxy-5-methylphenylamino)-5-methylpyrimidin-4-ylamino)-2-oxobenzo[d]oxazol-3(2H)-yl)methyl phosphate]	500 to 5000
Cc1cnc(Nc2ccc(-c3ccncc3)c(Cl)c2)nc1Nc1ccc2oc(=O)[nH]c2c1 [Compound I-329, N2-[3-chloro-4-(pyridin-4-yl)]phenyl 5-methyl-N4-(2-oxo-2,3-dihydro-1,3-benzoxazol-5-yl)-2,4-pyrimidinediamine]	500 to 5000
Cc1cnc(Nc2ccc(N(C)[C@H]3CCCN(Cc4ccccc4)C3)nc2)nc1Nc1ccc2oc(=O)[nH]c2c1 [II-100, (S)-5-(2-(6-((1-benzylpiperidin-3-yl)(methyl)amino)pyridin-3-ylamino)-5-methylpyrimidin-4-ylamino)benzo[d]oxazol-2(3H)-one]	< 500
